Measured values taken from PubChem BioAssay AID248 (DTP/NCI, 2004).
Several values for one entry are separate records, joined by “and”; a condition that tells them apart may be missing. Identical values can stand only once. Inconclusive results and toxic doses are left out. No stated cut-off is given here; in the data, active means T/C of 150% or more; inactive means T/C below 125%.

Test system: L1210 leukemia ip in BDF1 mice, survival T/C
Test: NCI In Vivo Anticancer Drug Screen. Data for tumor model L1210 Leukemia (intraperitoneal) in B6D2F1 (BDF1) mice
Settings: endpoint: mean survival time, higher = longer survival
Summary of the method: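 Read-out is survival time, reported as the treated-group measurement over the vehicle-control measurement.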

[1] = dose: 100.0 mg/kg/injection, schedule: Q01DX001 (ip), vehicle: saline
[2] = dose: 100.0 mg/kg/injection, schedule: Q01DX009 (ip), vehicle: Klucel (hydroxypropylcellulose) (HPC)
[3] = dose: 100.0 mg/kg/injection, schedule: Q04DX003 (ip), vehicle: Klucel (hydroxypropylcellulose) (HPC)
[4] = dose: 200.0 mg/kg/injection, schedule: Q01DX001 (ip), vehicle: saline
[5] = dose: 200.0 mg/kg/injection, schedule: Q01DX009 (ip), vehicle: Klucel (hydroxypropylcellulose) (HPC)
[6] = dose: 200.0 mg/kg/injection, schedule: Q04DX003 (ip), vehicle: Klucel (hydroxypropylcellulose) (HPC)
[7] = dose: 400.0 mg/kg/injection, schedule: Q01DX001 (ip), vehicle: saline
[8] = dose: 400.0 mg/kg/injection, schedule: Q01DX009 (ip), vehicle: Klucel (hydroxypropylcellulose) (HPC)
[9] = dose: 400.0 mg/kg/injection, schedule: Q04DX003 (ip), vehicle: Klucel (hydroxypropylcellulose) (HPC)
[10] = dose: 100.0 mg/kg/injection, schedule: Q04DX002 (ip), vehicle: Klucel (hydroxypropylcellulose) (HPC)
[11] = dose: 200.0 mg/kg/injection, schedule: Q04DX002 (ip), vehicle: Klucel (hydroxypropylcellulose) (HPC)
[12] = dose: 400.0 mg/kg/injection, schedule: Q04DX002 (ip), vehicle: Klucel (hydroxypropylcellulose) (HPC)
[13] = dose: 100.0 mg/kg/injection, schedule: Q01DX001 (ip), vehicle: acetone
[14] = dose: 100.0 mg/kg/injection, schedule: Q01DX009 (ip), vehicle: saline with Tween-80
[15] = dose: 100.0 mg/kg/injection, schedule: Q04DX003 (ip), vehicle: saline
[16] = dose: 200.0 mg/kg/injection, schedule: Q01DX001 (ip), vehicle: acetone
[17] = dose: 200.0 mg/kg/injection, schedule: Q01DX009 (ip), vehicle: saline with Tween-80
[18] = dose: 200.0 mg/kg/injection, schedule: Q04DX003 (ip), vehicle: saline
[19] = dose: 400.0 mg/kg/injection, schedule: Q01DX001 (ip), vehicle: acetone
[20] = dose: 400.0 mg/kg/injection, schedule: Q04DX003 (ip), vehicle: saline
[21] = dose: 100.0 mg/kg/injection, schedule: Q01DX001 (ip), vehicle: carboxymethylcellulose (CMC)
[22] = dose: 25.0 mg/kg/injection, schedule: Q04DX003 (ip), vehicle: Klucel (hydroxypropylcellulose) (HPC)
[23] = dose: 50.0 mg/kg/injection, schedule: Q01DX009 (ip), vehicle: saline with Tween-80
[24] = dose: 50.0 mg/kg/injection, schedule: Q04DX003 (ip), vehicle: Klucel (hydroxypropylcellulose) (HPC)
[25] = dose: 100.0 mg/kg/injection, schedule: Q04DX003 (ip), vehicle: saline with Tween-80
[26] = dose: 200.0 mg/kg/injection, schedule: Q04DX003 (ip), vehicle: saline with Tween-80
[27] = dose: 400.0 mg/kg/injection, schedule: Q01DX009 (ip), vehicle: saline with Tween-80
[28] = dose: 400.0 mg/kg/injection, schedule: Q04DX003 (ip), vehicle: saline with Tween-80

Measured: T/C

CC(C)CCOC(=O)Nc1cccc(Cl)c1
inactive: dose: 75.0 mg/kg/injection, schedule: Q01DX009 (ip), vehicle: saline with Tween-80 113 % of control | dose: 100.0 mg/kg/injection, schedule: Q04DX002 (ip), vehicle: saline with Tween-80 93 % of control | dose: 150.0 mg/kg/injection, schedule: Q01DX009 (ip), vehicle: saline with Tween-80 103 % of control | dose: 200.0 mg/kg/injection, schedule: Q04DX002 (ip), vehicle: saline with Tween-80 86 % of control | dose: 300.0 mg/kg/injection, schedule: Q01DX009 (ip), vehicle: saline with Tween-80 98 % of control | dose: 400.0 mg/kg/injection, schedule: Q04DX002 (ip), vehicle: saline with Tween-80 89 % of control

O=C1c2ccccc2-c2cc3ccccc3cc21
inactive: [1] 100 % of control | [2] 92 % of control | [3] 108 % of control | [4] 101 % of control | [5] 92 % of control | [6] 108 % of control | [7] 103 % of control | [8] 90 % of control | [9] 110 % of control

CCOc1cc(OCC)c(/C=C/[N+](=O)[O-])c(OCC)c1
inactive: [10] 87 % of control | [11] 97 % of control | [12] 100 % of control

CCCCCCCCCCCCCCCCNC(=S)NC1CCCCC1
inactive: dose: 30.0 mg/kg/injection, schedule: Q01DX015 (ip), vehicle: carboxymethylcellulose (CMC) 104 % of control | dose: 60.0 mg/kg/injection, schedule: Q01DX015 (ip), vehicle: carboxymethylcellulose (CMC) 98 % of control | [13] 100 % of control | [14] 102 % of control | [15] 101 % of control | dose: 120.0 mg/kg/injection, schedule: Q01DX015 (ip), vehicle: carboxymethylcellulose (CMC) 94 % of control | [16] 88 % of control | [17] 96 % of control | [18] 97 % of control | dose: 240.0 mg/kg/injection, schedule: Q01DX015 (ip), vehicle: carboxymethylcellulose (CMC) 94 % of control and 102 % of control | [19] 91 % of control | [20] 101 % of control | dose: 480.0 mg/kg/injection, schedule: Q01DX015 (ip), vehicle: carboxymethylcellulose (CMC) 101 % of control

O=C1C(Cl)=C(N=Nc2c(Cl)c(O)c3ccccc3c2O)C(=O)c2ccccc21
inactive: dose: 12.5 mg/kg/injection, schedule: Q01DX009 (ip), vehicle: acetone 105 % of control | dose: 25.0 mg/kg/injection, schedule: Q01DX009 (ip), vehicle: acetone 107 % of control | dose: 50.0 mg/kg/injection, schedule: Q01DX009 (ip), vehicle: acetone 104 % of control | [21] 97 % of control

NC(=O)N/N=C(/CCC(=O)O)C(=O)O
inactive: [13] 98 % of control | dose: 100.0 mg/kg/injection, schedule: Q01DX009 (ip), vehicle: acetone 92 % of control | [15] 89 % of control | [16] 103 % of control | dose: 200.0 mg/kg/injection, schedule: Q01DX009 (ip), vehicle: acetone 100 % of control | [18] 93 % of control and 87 % of control | [19] 95 % of control | dose: 400.0 mg/kg/injection, schedule: Q01DX009 (ip), vehicle: acetone 94 % of control | [20] 91 % of control

CCCCCc1ccc2oc(=O)c3ccc(C)cc3c2c1O
inactive: [2] 90 % of control | [3] 97 % of control | [5] 93 % of control | [6] 98 % of control | [8] 97 % of control | [9] 97 % of control

c1nc(NCCc2cnc[nH]2)c2[nH]cnc2n1
inactive: [21] 95 % of control | dose: 200.0 mg/kg/injection, schedule: Q01DX001 (ip), vehicle: carboxymethylcellulose (CMC) 90 % of control | dose: 400.0 mg/kg/injection, schedule: Q01DX001 (ip), vehicle: carboxymethylcellulose (CMC) 97 % of control

CC[N+]12CC[N+](CC)(CC1)C2
inactive: [1] 103 % of control | [4] 101 % of control | [7] 91 % of control

CNC(=O)OC(C)CN(c1ccccc1)c1ccccc1 (stereo unspecified)
inactive: dose: 50.0 mg/kg/injection, schedule: Q01DX001 (ip), vehicle: saline 98 % of control | [1] 104 % of control | [4] 98 % of control | [7] 102 % of control

Cc1cc(C)c(N)c(Br)c1
inactive: dose: 25.0 mg/kg/injection, schedule: Q01DX009 (ip), vehicle: saline with Tween-80 88 % of control | [22] 95 % of control | [23] 87 % of control | [24] 97 % of control | dose: 100.0 mg/kg/injection, schedule: Q01DX001 (ip), vehicle: Klucel (hydroxypropylcellulose) (HPC) 95 % of control | [3] 93 % of control and 90 % of control | [25] 91 % of control | dose: 200.0 mg/kg/injection, schedule: Q01DX001 (ip), vehicle: Klucel (hydroxypropylcellulose) (HPC) 97 % of control

C#CCO
inactive: dose: 12.0 mg/kg/injection, schedule: Q01DX009 (ip), vehicle: saline 107 % of control | dose: 25.0 mg/kg/injection, schedule: Q01DX009 (ip), vehicle: saline 110 % of control | dose: 50.0 mg/kg/injection, schedule: Q01DX009 (ip), vehicle: saline 94 % of control

O=C1OC(c2ccc(Cl)cc2)=N/C1=C\c1c(Cl)cccc1Cl
inactive: dose: 100.0 mg/kg/injection, schedule: Q04DX002 (ip), vehicle: saline 93 % of control | dose: 200.0 mg/kg/injection, schedule: Q04DX002 (ip), vehicle: saline 107 % of control | dose: 400.0 mg/kg/injection, schedule: Q04DX002 (ip), vehicle: saline 118 % of control

O=c1[nH]c2c(cc1Br)C(Br)C(Br)C=C2 (stereo unspecified)
inactive: dose: 100.0 mg/kg/injection, schedule: Q01DX001 (ip), vehicle: other 105 % of control | dose: 200.0 mg/kg/injection, schedule: Q01DX001 (ip), vehicle: other 108 % of control

c1ccc(C(N2CCN(c3ccccc3)CC2)N2CCN(c3ccccc3)CC2)cc1
inactive: [10] 94 % of control | [11] 94 % of control | [12] 94 % of control

O=C(CC(NC(=O)OCc1ccccc1)C(=O)OCc1ccccc1)OCc1ccccc1 (stereo unspecified)
inactive: [5] 88 % of control | [8] 89 % of control

COc1ccc(NC(=O)CCC(=O)O)cc1
inactive: [23] 110 % of control | dose: 50.0 mg/kg/injection, schedule: Q04DX003 (ip), vehicle: saline with Tween-80 96 % of control | [14] 108 % of control | [25] 100 % of control | [17] 100 % of control | [26] 100 % of control | [27] 107 % of control | [28] 94 % of control

CCCCCCCCCCCCOC(N)=O
inactive: [23] 103 % of control | [14] 101 % of control | [25] 103 % of control | [17] 101 % of control | [26] 108 % of control | [28] 88 % of control

CCCCCC[Se][Se]CCCCCC
inactive: dose: 6.25 mg/kg/injection, schedule: Q01DX009 (ip), vehicle: Klucel (hydroxypropylcellulose) (HPC) 96 % of control | dose: 12.5 mg/kg/injection, schedule: Q01DX009 (ip), vehicle: Klucel (hydroxypropylcellulose) (HPC) 96 % of control | dose: 25.0 mg/kg/injection, schedule: Q01DX009 (ip), vehicle: Klucel (hydroxypropylcellulose) (HPC) 91 % of control | [22] 90 % of control | [24] 103 % of control and 107 % of control

COc1ccc(C(=O)/C=C2\C(=O)Nc3ccc(Br)cc32)cc1
inactive: [10] 107 % of control | [11] 100 % of control | [12] 93 % of control

COc1ccc(NC(=O)CC(C)C(=O)O)cc1 (stereo unspecified)
inactive: [14] 102 % of control | [17] 90 % of control | [27] 104 % of control
